Reference: the METLIN SMRT retention time set (Domingo-Almenara et al. 2019)

Assay: gradient 5% acetonitrile 3 min, to 50% in 2 min, to 85% in 15 min, held 3 min, 100 µL/min
Settings: column: Zorbax Extend-C18 2.1 x 50 mm; eluents: water / acetonitrile, 0.1% formic acid
In short: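 Using water and acetonitrile that each contained 0.1% formic acid, mixtures of ~100 pure standards were separated at 100 μL/min on a Zorbax Extend-C18 column (2.1 × 50 mm, 1.8 μm). The HPLC fed a quadrupole time-of-flight mass spectrometer working in positive and negative ionization mode, with dead and dwell volumes of 40 μL and 900 μL. Data were acquired over 3 months. Retention time was read from computationally picked adduct peaks after manual inspection of each.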

RP-LC retention time	Structure (SMILES)
750 s	CN1C(=O)c2cc(C(=O)NCc3cccc(F)c3)nn2CC1(C)C(=O)NC1CCCC1 (stereo not drawn)
896 s	Cn1c(=O)sc2cc(S(=O)(=O)N3CCC(C(=O)NC4CCCCCC4)CC3)ccc21
883 s	CC(C)C(=O)Nc1ccc2nc(N3CCN(c4cccc(Cl)c4)CC3)cc(C(=O)O)c2c1
699 s	O=C(Cc1c(Sc2cccc(F)c2)[nH]c2ccccc12)N1CCN(c2ccccn2)CC1
803 s	Cc1ccccc1NC(=O)C1CC(=O)N(c2ccc3c(c2)CCN3C(=O)C2CCC2)C1 (stereo not drawn)
599 s	CCN1CCCC1CNC(=O)c1nnc(-c2ccc(S(=O)(=O)N3CCOCC3)cc2)o1 (stereo not drawn)
582 s	O=C(c1ccc(CS(=O)c2ccc(Cl)cc2)o1)N1CCN(c2ccccn2)CC1 (stereo not drawn)
568 s	O=C(NCCCN1CCOCC1)C1CCc2sc(C(=O)N3CCOCC3)cc2C1 (stereo not drawn)
984 s	Cc1cccc(CNC(=O)C2CCCN(c3ccc(=O)n(-c4ccc(C)c(Cl)c4)n3)C2)c1 (stereo not drawn)
612 s	COc1ccc(/C=C\c2onc(C)c2NC(C)=O)cc1S(=O)(=O)N1CCN(c2ccccn2)CC1
962 s	COc1ccc(N2CCN(c3cc(SCC(=O)Nc4ccc(OC)cc4OC)ncn3)CC2)cc1
766 s	O=C1COc2ccc(S(=O)(=O)N3CCC(C(=O)N4CCN(c5ccccc5)CC4)CC3)cc2N1
656 s	O=C(Cc1ccc(Cl)cc1)N1CCN(c2cnn3cnnc3c2)CC1
600 s	Cc1cnc(C2CN(CC3CCCCC3)C2)n1Cc1ccccc1
760 s	Cc1nc(-c2csc(S(=O)(=O)N3CCC(C(=O)N4CCCC4)CC3)c2)no1
940 s	O=C(Nc1ccc(Cl)c(Cl)c1)N1CCN(c2ncc(C(F)(F)F)cc2Cl)CC1
1030 s	COc1ccc(N2CCN(c3cc(SCC(=O)Nc4ccccc4F)ncn3)CC2)cc1
587 s	CCCC(=O)Nc1ccc2nc(N3CCN(CC(=O)N4CCCCCC4)CC3)cc(C(=O)O)c2c1
596 s	CC(C)NC(=O)C1CCc2sc(C(=O)N3CCOCC3)cc2C1 (stereo not drawn)
697 s	CCOCCCNC(=O)C1CCCN(c2ccc(=O)n(-c3ccc(F)cc3)n2)C1 (stereo not drawn)
703 s	COc1ccc(C2(C(=O)N3CCCN(Cc4noc(-c5ccccc5)n4)CC3)CC2)cc1
747 s	O=C([C@@H]1C[C@H](F)CN1C(=O)Nc1cccc(Cl)c1)N1CCCCC1
1030 s	CCc1nc(-c2csc(S(=O)(=O)N3CCCC(C(=O)Nc4ccccc4)C3)c2)no1 (stereo not drawn)
844 s	COc1ccc(NC(=O)Cn2nc3nc(N4CCCC(C)C4)ccn3c2=O)cc1OC (stereo not drawn)
671 s	CCCC(=O)N1CCCC(c2nc(CNC(=O)C(C)C)cs2)C1 (stereo not drawn)
836 s	CCCn1cc(C(=O)N2CCCc3ccccc32)c2nn(-c3ccccc3)c(=O)c-2c1
670 s	O=C(C1CCCN(c2nnc3ccc(C(F)(F)F)cn23)C1)N1CCCCC1 (stereo not drawn)
598 s	CCN1CCN(CCNC(=O)c2cnc(-c3ccc(C)cc3)nc2-c2ccncc2)CC1
730 s	COC(=O)c1c(C)[nH]c(C(=O)N2CCC(CC(=O)NC3CCCCC3)CC2)c1C
718 s	O=C(c1csc(S(=O)(=O)N2CCC(C(=O)N3CCOCC3)CC2)c1)N1CCCCCC1

Second part, the compound before the results:

Structure (SMILES)	RP-LC retention time
O=c1ccc(-c2ccccc2F)nn1Cc1nc(-c2ccccc2Cl)no1	1020 s
CCc1onc(C)c1C1CCCN1C(=O)Nc1ccccc1OC (stereo not drawn)	825 s
C#CCSc1n[nH]c(-c2ccco2)n1	719 s
CC(C)(O)CC[C@@H](O)[C@@](C)(O)[C@H]1CC[C@@]2(O)C3=CC(=O)[C@@H]4C[C@@H](O)[C@@H](O)C[C@]4(C)[C@H]3CC[C@]12C	607 s
O=C(Nc1cccc(C(F)(F)F)c1)Nc1nc(-c2ccccc2)cs1	1140 s
COc1cccc(C(=O)Nc2nc3c(s2)CN(Cc2ccccc2)CC3)c1OC	585 s
CCOc1ccc(-c2cc(=O)n(CCCC(=O)Nc3cccc(SC)c3)cn2)cc1	847 s
CNC(=O)c1nn(-c2ccc(OC)c(OC)c2)c(OC)cc1=O	590 s
COc1ccc(OC)c(NC(=O)C2CCN(S(=O)(=O)c3ccc4c(c3)NC(=O)C(C)O4)CC2)c1 (stereo not drawn)	856 s
O=C1N(c2cccc(Cl)c2)c2ncccc2S(=O)(=O)N1Cc1ccccc1	1100 s
CCOc1ccc(-c2noc(CN3N=NC4C(=O)N(c5cccc(OC)c5)C(=O)C43)n2)cc1OC (stereo not drawn)	917 s
CC1Oc2ccccc2N(Cc2nc(-c3cccc(Br)c3)no2)C1=O (stereo not drawn)	1200 s
CCn1c(=O)sc2cc(S(=O)(=O)N3CCC(C(=O)NCc4ccccc4)CC3)ccc21	845 s
CC(C)CN1C(=O)c2cccn2CC1CNC(=O)c1n[nH]c(=O)c2ccccc12 (stereo not drawn)	689 s
O=C(Cc1cccs1)N1CCc2cc(-c3ccno3)ccc21	919 s
Cc1ccc(C(=O)N2CCCn3cc(-c4ccccc4)nc32)cn1	605 s
O=c1[nH]c(-c2cccc(O)c2)nc2sc3c(c12)CCCC3	830 s
Cc1cc2nc(NCCCO)n(CC(=O)c3cc(C(C)(C)C)c(O)c(C(C)(C)C)c3)c2cc1C	1030 s
O=C(CS(=O)(=O)Cc1ccccc1)Nc1nc(-c2ccccn2)cs1	614 s
COc1ccc(CCc2nc3nccc(-c4ccc(OC)cc4F)n3n2)cc1	941 s

Structure (SMILES)	RP-LC retention time
COc1ccc(S(=O)(=O)N2CC(C(=O)NC3CCCCC3)Oc3cc(C)ccc32)cc1 (stereo not drawn)	1170 s
CCCn1cnc2ccc(-c3noc(-c4ccccc4F)n3)cc21	812 s
CC(C)c1nn2c(S(=O)(=O)NC3CCCC3)c(C(C)C)nc2s1	1050 s
CC(=O)c1ccc2c(c1)N(CCCN(C)C)c1ccccc1S2	741 s
Cc1oc(-c2[nH]ncc2C(=O)N(C)C)cc1S(=O)(=O)Nc1cccc(Cl)c1	703 s
CC(C)n1ccc(-c2nnc(NC(=O)COc3ccc(Cl)cc3Cl)o2)n1	793 s
Cc1ccc(C(=O)Nc2nc(C)cc(C)c2-c2noc(C)n2)cc1	743 s
COCCCNc1c(-c2ccc(C)cc2)nc2sc(C(N)=O)c(C)n12	705 s
CCn1cnc2ccc(-c3noc(-c4ccc(OC)cc4)n3)cc21	753 s
COc1ccc2nc(C(=O)NCc3ccc(C)cc3)cn2n1	843 s
CCOC(=O)c1noc2nc(C)nc(NCc3ccc(CC)cc3)c12	722 s
COC(=O)C1=CN(C2CC2)c2cc(N3CCCC(C)C3)c(F)cc2S1(=O)=O (stereo not drawn)	1010 s
CCN(C)C(=O)C1CN(C(=O)c2cccs2)CC1c1cccc(C(F)(F)F)c1 (stereo not drawn)	823 s
COc1cccc(S(=O)(=O)N2CCC(Cc3nncn3C)CC2)c1	641 s
CCOC(=O)c1ccc(NC(=O)c2ccc(S(=O)(=O)N(C)C)cc2)cc1	833 s
Cc1csc(C(=O)NCCC(O)C(C)(C)C)c1 (stereo not drawn)	718 s
Cc1ccc(OCC(O)Cn2c(C3CC3)nc3ccccc32)cc1C (stereo not drawn)	724 s
CCS(=O)(=O)N1CCc2nc(-c3ccc(OC)cc3)ncc2C1	805 s
Cc1cc(OC(C)C(=O)Nc2ccnn2Cc2ccco2)ccc1Cl (stereo not drawn)	921 s
Cc1ccc(-c2csc(Cc3nc(-c4ccc(F)cc4)no3)n2)c(C)c1	1070 s

Structure (SMILES)	RP-LC retention time
O=C(Cc1cn(Cc2ccccc2)c2ccccc12)NCc1cccs1	929 s
CN(C)c1ccc(-c2nc3cnccn3c2Nc2ccccc2)cc1	745 s
O=C(NC(Cc1c[nH]c2ccccc12)C(=O)O)c1ccc(Cl)cc1 (stereo not drawn)	724 s
Cc1ccc(Nc2c(-c3ccc(C)cc3)nc3ccc(Br)cn23)cc1	849 s
O=C1NC2(CCN(C(=O)c3ccccc3Cl)CC2)N=C1c1cccc(F)c1	776 s
COc1ccc(CN2C(=O)C3(CCOCC3)CC2c2nnnn2C(C)(C)C)cc1 (stereo not drawn)	760 s
CCOC(=O)NCC1CCN(S(C)(=O)=O)CC1	603 s
C[C@H](NC(=O)C(C)(C)Oc1ccc(C(F)(F)F)cn1)[C@@H](Cc1ccc(Cl)cc1)c1cccc(C#N)c1	1320 s
Cn1c(=O)c2cc(C(=O)Nc3ccc4c(c3)OCCO4)cnc2n(-c2ccccc2)c1=O	842 s
COc1ccc2c(c1)CCC1C2CC[C@@]2(C)C1CC[C@@H]2NCCCCCCN1C(=O)CCC1=O (stereo partly drawn)	864 s
Cc1ccc(N2CCC(NC(=O)c3cccs3)C2=O)cc1C (stereo not drawn)	827 s
COc1ccc(-c2ncc3c(n2)CCN(S(=O)(=O)c2cccc(Cl)c2)C3)cc1	1100 s
CC1CCCCN1CCNS(=O)(=O)c1ccccc1-c1nc(-c2cccc(F)c2)no1 (stereo not drawn)	746 s
CCCc1cc(NCc2ccccn2)n2ncc(-c3ccccc3)c2n1	894 s
CC(=O)OC1CCN(C(=O)NC(C)C)CC1	621 s
CCOc1cccc(Cn2c(=O)c3sccc3n(Cc3nc(-c4ccc(C)cc4)no3)c2=O)c1	1120 s
CC(C)NC(=O)c1ccc(OCC2CCCN(C(=O)Cc3ccccc3F)C2)cc1 (stereo not drawn)	875 s
O=C(c1ccco1)C(C(c1cccc(Cl)c1)N1CCOCC1)N1CCOCC1 (stereo not drawn)	782 s
